Reference: US10577395B2 (priority 2014, dated 2020)
Converted amounts (≈) assume the structure as drawn. Where two headings read alike, the source gives them in different places.

Legend:
[1] = tested on: vancomycin-sensitive Staphylococcus aureus (VSSA strain ATCC 25923); assay: Antimicrobial assay, MIC, vancomycin-sensitive S. aureus; type: cell-based; settings: for MIC: Staphylococcus aureus
Experimental: (§1) Assays were carried out following the methods of Clinical and Laboratory Standards Institute; Methods for Dilution Antimicrobial Susceptibility Tests for Bacteria That Grow Aerobically; Approved Standard, […].; CLSI document M07-A8; Clinical and Laboratory Standards Institute: Wayne, Pa., 2009.
(§2) This diluted bacterial stock solution was then inoculated into a well of a V-shaped 96-well glass coated microtiter plate, supplemented with serial diluted aliquots of the antibiotic solution DMSO (4 μL), to achieve a total assay volume of 0.1 mL. The plate was then incubated at 37° C. for 18 hours, after which minimal inhibitory concentrations (MICs) were determined by monitoring the cell growth (observed as a pellet) in the wells. The lowest concentration of antibiotic (in μg/mL) capable of eliminating the cell growth in the wells is reported as the MIC.

[2] = tested on: vancomycin-sensitive strain of E. faecium; settings: Kahne et al., Chem. Rev. 2005; cited from earlier work
[3] = tested on: Enterococcus faecium (VanA VRE, ATCC BAA-2317); assay: Antimicrobial assay, MIC, VanA E. faecium; type: cell-based; settings: for MIC: Enterococcus faecium
Experimental: as §1, §2

[4] = tested on: vancomycin-resistant Enterococcus faecalis (VanA VRE, BM4166); assay: microbe, parasite or virus in culture; type: cell-based; settings: for MIC: Enterococcus faecalis, VRE
Experimental: as §1, §2

[5] = tested on: vancomycin-resistant Enterococcus faecalis (VanB VRE, strain ATCC 51299); assay: microbe, parasite or virus in culture; type: cell-based; settings: for MIC: Enterococcus faecalis
Experimental: as §1, §2

[6] = relative to D-Ala-D-Ala; cited from earlier work
VSSA and MRSA = assay: Antimicrobial assay, MIC for VSSA and MRSA together; type: cell-based, S. aureus
Experimental: as §1, §2

VanA VRE = assay: Antimicrobial assay, MIC for VanA VRE; type: cell-based, E. faecalis and E. faecium
Experimental: as §1, §2

[7] = tested on: methicillin and oxacillin-resistant Staphylococcus aureus subsp. aureus (MRSA strain ATCC 43300); assay: Antimicrobial assay, MIC, MRSA; type: cell-based; settings: for MIC: Staphylococcus aureus
Experimental: as §1, §2

[8] = tested on: vancomycin-resistant strain of E. faecium; settings: Kahne et al., Chem. Rev. 2005; cited from earlier work
[9] = tested on: vancomycin-resistant strain of E. faecium; assay: MIC reported by Kahne et al., vancomycin-resistant E. faecium; type: cell-based; settings: Kahne data

CN[C@H](CC(C)C)C(=O)N[C@H]1C(=O)N[C@@H](CC(N)=O)C(=O)N[C@H]2C(=O)N[C@H]3C(=O)N[C@H](C(=O)N[C@H](C(=O)O)c4cc(O)cc(O)c4-c4cc3ccc4O)[C@H](O)c3ccc(c(Cl)c3)Oc3cc2cc(c3O[C@@H]2O[C@H](CO)[C@@H](O)[C@H](O)[C@H]2O[C@H]2C[C@](C)(N)[C@H](O)[C@H](C)O2)Oc2ccc(cc2Cl)[C@H]1O [Compound 1, vancomycin, reference compound]
MIC, sensitive S. aureus ([1]; ATCC 25923): 0.5 µg/mL (≈ 0.345 µM) | MIC, sensitive S. aureus, serum concentration 10% ([1]; ATCC 25923, 10%): 0.5 µg/mL (≈ 0.345 µM) | MIC, sensitive S. aureus, serum concentration 25% ([1]; ATCC 25923, 25%): 0.5 µg/mL (≈ 0.345 µM) | MIC, sensitive S. aureus, serum concentration 100% ([1]; ATCC 25923, 100%): 0.5 µg/mL (≈ 0.345 µM) | MIC, vancomycin-sensitive strain of E. faecium [2]: 1 µg/mL | MIC, VanA E. faecium ([3]; ATCC BAA-2317): 250 µg/mL (≈ 173 µM) | MIC, Van A E. faecium, serum concentration 10% ([3]; ATCC BAA-2317, 10%): 250 µg/mL (≈ 173 µM) | MIC, Van A E. faecium, serum concentration 25% ([3]; ATCC BAA-2317, 25%): 250 µg/mL (≈ 173 µM) | MIC, Van A E. faecium, serum concentration 100% ([3]; ATCC BAA-2317, 100%): 500 µg/mL (≈ 345 µM) | MIC, VanA E. faecalis ([4]; BM 4166): 250 µg/mL (≈ 173 µM) | MIC, Van A E. faecalis, serum concentration 10% ([4]; BM 4166, 10%): 250 µg/mL (≈ 173 µM) | MIC, Van A E. faecalis, serum concentration 25% ([4]; BM 4166, 25%): 250 µg/mL (≈ 173 µM) | MIC, Van A E. faecalis, serum concentration 100% ([4]; BM 4166, 100%): 500 µg/mL (≈ 345 µM) | MIC, VanB E. faecalis ([5]; ATCC 51299): 8 µg/mL (≈ 5.52 µM) | MIC, Van B E. faecalis, serum concentration 10% ([5]; ATCC 51299, 10%): 4 µg/mL (≈ 2.76 µM) | MIC, Van B E. faecalis, serum concentration 25% ([5]; ATCC 51299, 25%): 8 µg/mL (≈ 5.52 µM) | MIC, Van B E. faecalis, serum concentration 100% ([5]; ATCC 51299, 100%): 32 µg/mL (≈ 22.1 µM) | reduction of binding affinity for the altered ligand D-Ala-D-Lac [6]: 1000 fold | MIC against VSSA and MRSA (VSSA and MRSA; one value stated for both strains): 0.5 µg/mL (≈ 0.345 µM) | MIC against VanA VRE (VanA VRE; stated for VanA VRE): 250 µg/mL (≈ 173 µM) | MIC, MRSA S. aureus ([7]; ATCC 43300): 0.5 µg/mL (≈ 0.345 µM) | MIC, MRSA S. aureus, serum concentration 10% ([7]; ATCC 43300, 10%): 0.5 µg/mL (≈ 0.345 µM) | MIC, MRSA S. aureus, serum concentration 25% ([7]; ATCC 43300, 25%): 0.5 µg/mL (≈ 0.345 µM) | MIC, MRSA S. aureus, serum concentration 100% ([7]; ATCC 43300, 100%): 1 µg/mL (≈ 0.69 µM)

CN[C@H](CC(C)C)C(=O)N[C@H]1C(=O)N[C@@H](CC(N)=O)C(=O)N[C@H]2C(=O)NC3C(=O)N[C@H](C(=O)N[C@H](C(=O)O)c4cc(O)cc(O)c4-c4cc3ccc4O)[C@H](O)c3ccc(c(Cl)c3)Oc3cc2cc(c3OC2OC(CO)C(O)[C@H](O)[C@@H]2O[C@H]2CC(C)(NCc3ccc(-c4ccc(Cl)cc4)cc3)[C@H](O)[C@H](C)O2)Oc2ccc(cc2Cl)[C@H]1O (stereo partly drawn) [Compound 4, N-4-(4′-chlorobiphenyl)methyl vancomycin, reference compound]
MIC, vancomycin-resistant strain of E. faecium [8]: 16 µg/mL | MIC ([1]; ATCC25923, read-out: MIC, sensitive S. aureus): 0.03 µg/mL (≈ 0.0182 µM) | MIC ([1]; ATCC25923, read-out: MIC, sensitive S. aureus, serum concentration 10%): 0.03 µg/mL (≈ 0.0182 µM) | MIC ([1]; ATCC25923, read-out: MIC, sensitive S. aureus, serum concentration 25%): 0.03 µg/mL (≈ 0.0182 µM) | MIC ([1]; ATCC25923, read-out: MIC, sensitive S. aureus, serum concentration 100%): 0.06 µg/mL (≈ 0.0364 µM) | MIC, vancomycin-sensitive strain of E. faecium [2]: 0.03 µg/mL | MIC ([3]; read-out: MIC, Van A E. faecium, serum concentration 10%): 2.5 µg/mL (≈ 1.52 µM) | MIC ([3]; read-out: MIC, Van A E. faecium, serum concentration 25%): 5 µg/mL (≈ 3.03 µM) | MIC ([3]; read-out: MIC, Van A E. faecium, serum concentration 100%): 5 µg/mL (≈ 3.03 µM) | MIC ([3]; read-out: MIC, VanA E. faecium): 2.5 µg/mL (≈ 1.52 µM) | MIC ([4]; read-out: MIC, Van A E. faecalis, serum concentration 10%): 2.5 µg/mL (≈ 1.52 µM) | MIC ([4]; read-out: MIC, Van A E. faecalis, serum concentration 25%): 5 µg/mL (≈ 3.03 µM) | MIC ([4]; read-out: MIC, Van A E. faecalis, serum concentration 100%): 10 µg/mL (≈ 6.06 µM) | MIC ([4]; read-out: MIC, VanA E. faecalis): 2.5 µg/mL (≈ 1.52 µM) | MIC ([5]; read-out: MIC, Van B E. faecalis, serum concentration 10%): 0.03 µg/mL (≈ 0.0182 µM) | MIC ([5]; read-out: MIC, Van B E. faecalis, serum concentration 25%): 0.06 µg/mL (≈ 0.0364 µM) | MIC ([5]; read-out: MIC, Van B E. faecalis, serum concentration 100%): 0.06 µg/mL (≈ 0.0364 µM) | MIC ([5]; read-out: MIC, VanB E. faecalis): 0.03 µg/mL (≈ 0.0182 µM) | improvement in activity against VSSA and MRSA on introduction of the (4-chlorobiphenyl)methyl group (VSSA and MRSA; Compound 4 vs Compound 1): 20 fold | MIC (VSSA and MRSA; Staphylococcus aureus, MRSA, read-out: MIC against VSSA and MRSA): 0.03 µg/mL (≈ 0.0182 µM) | resistant strain less sensitive than the sensitive strain [9]: about 500 times | MIC (VanA VRE; Enterococcus, VRE, read-out: MIC against VanA VRE): 2.5 µg/mL (≈ 1.52 µM) | improvement in activity against VanA VRE on introduction of the (4-chlorobiphenyl)methyl group (VanA VRE; relative to the analogue without CBP group): 100 fold | MIC ([7]; read-out: MIC, MRSA S. aureus): 0.03 µg/mL (≈ 0.0182 µM) | MIC ([7]; read-out: MIC, MRSA S. aureus, serum concentration 10%): 0.03 µg/mL (≈ 0.0182 µM) | MIC ([7]; read-out: MIC, MRSA S. aureus, serum concentration 25%): 0.06 µg/mL (≈ 0.0364 µM) | MIC ([7]; read-out: MIC, MRSA S. aureus, serum concentration 100%): 0.06 µg/mL (≈ 0.0364 µM)
